From patent US10238688B2, “Combination therapies for bladder cancer” (GENEDIA BIOTECH CO. LTD., priority 2015, dated 2019)

Key:
Assay type in all cases: cell-based, human
[1] = tested on: EJ; assay: MTT cell survival / IC50, EJ cells
Experimental: The clinical grade of the chemotherapeutics (NCI Dictionary of Cancer Terms) was provided by the First Affiliated Hospital of Harbin Medical University: Pirarubicin (Pi, Wanle, Shenzhen), Paclitaxel (Pa, Taiji, Sichuan), Adriamycin (Ad, Pfizer, Jiangsu), Epirubicin Hydrochloride (EH, Haizheng, Zhejiang), Hydroxycamptothecin (Hy, Lishizhen, Hubei), Cisplatin (Ci, Haosen, Jiangsu), Gemcitabine (Ge, Haosen, Jiangsu) and Mitomycin (Mi, Haizheng, Zhejiang). The drug induced cell death was determined by a thiazolyl […] (MTT, 490 nm reading) based cell proliferation assay in the cultured cells following treatment by various concentrations of drugs for 72 hours. The relative chemoresistance to each drug of all cell lines was calculated with the lowest IC50 as a reference. The overall chemoresistance of each cell line was described as “chemoresistance index”, the numerator of the total relative IC50 to all the drugs over the number of drugs to rank the overall resistance state of each cell line to the six chemotherapeutics collectively.
The relative IC50 (fold) of each drug of all nine cell lines was normalized to the lowest IC50 in the most sensitive cell line (FIG. 2G), to describe the single drug resistance of cell lines. The overall chemoresistance of each cell line, a “chemoresistance index” (the numerator of the total relative IC50 over the number of drugs) (FIG. 2G) were calculated to rank the overall resistance state of each cell line to this six chemotherapeutics.
Twenty six-drug combinations at the indicated doses were initially generated through a random number generator (using MATLAB MathWorks©, Natick, Mass., U.S.) (The upper half of Table 1). The cell survival (% over the not drug control) of treated cells was determined and then used for a calculation of the average cumulative cell survival (%, ACS: the sum of cell survival (%) per combination divided by the number of cell lines tested). ACS<30% was used to separate the effective from the not-effective combinations.

[2] = tested on: Hypoxia pathway; assay: Cignal Finder dual-luciferase pathway reporter, Hypoxia; design: key to Relative activity, Hypoxia reporter: firefly/renilla ratio, background (negative control) subtracted; conditions: for Relative activity, Hypoxia reporter: luc/Renluc relative to negative control reporter, single drug at 4 folds vs EH/Ci/Mi combination
Experimental: (§1) The pathway analysis was performed with Qiagen's Cignal Finder Pathway Reporter Array systems according to the manufacturer's instructions. The pathway-focused dual-luciferase reporter construct was a mixture of an inducible transcription factor responsive firefly luciferase reporter and constitutively expressing renilla construct. Transcriptional response element (TRE) sequence response elements to each specific transcriptional factor triggered by the different signaling pathways are positioned before the TATA box of firefly luciferase reporter gene. The extent of activity of the reporter reflects the level of activity of the particular signaling pathway. CMV controlled renilla expression vector is co-transfected into the cell as an internal control. Non-inducible reporter construct that lacks the transcriptional factor binding sequence and could not be induced by any transcription factors is used as a negative control. Cells transfected with CMV directed firefly luciferase reporter gene serve as a positive control. Briefly, cells seeded in 6-well plates were transfected with Cignal finder pathway arrays according to the manufacturer's instructions (Qiagen). Then cells were seeded onto 96-well plates. Ci (6000 ng/mL), Mi (800 ng/mL), or EH (1000 ng/mL) and Ci/Mi/EH combination (Ci, 1500 ng/mL, Mi, 800 ng/mL and EH, 1000 ng/m L) were then added to the cells 24 h post-transfection. After 6 h of incubation with the different drugs at 37° C., cells were lysed and a dual luciferase assay (for firefly and renilla luciferase) was performed using a PromegaGloMax 20/20 illuminometer. The firefly luciferase activities were normalized over the renilla luciferase activities after background activity determined by luciferase activities of negative controls was subtracted. A triple test of cell survival under these drug doses was also performed by MTT assay following 18 h incubation at 37° C. […]

[3] = tested on: Heat Shock pathway; assay: Cignal Finder dual-luciferase pathway reporter, Heat Shock; design: key to Relative activity, Heat Shock reporter: firefly/renilla ratio, background (negative control) subtracted; conditions: for Relative activity, Heat Shock reporter: luc/Renluc relative to negative control reporter, single drug at 4 folds vs EH/Ci/Mi combination
Experimental: as §1, with “Ci (6000 ng/mL), Mi (800 ng/mL), or EH (1000 ng/mL) and Ci/Mi/EH combination (Ci, 1500 ng/mL, Mi, 800 ng/mL and EH, 1000 ng/m L) were then added to the cells 24 h post-transfection.” left out

[4] = tested on: Myc/Max pathway; assay: Cignal Finder dual-luciferase pathway reporter, Myc/Max; conditions: for Relative activity, Myc/Max reporter: luc/Renluc relative to negative control reporter, single drug at 4 folds vs EH/Ci/Mi combination
Experimental: as §1, with “Ci (6000 ng/mL), Mi (800 ng/mL), or EH (1000 ng/mL) and Ci/Mi/EH combination (Ci, 1500 ng/mL, Mi, 800 ng/mL and EH, 1000 ng/m L) were then added to the cells 24 h post-transfection.” left out

COc1cccc2c1C(=O)c1c(O)c3c(c(O)c1C2=O)C[C@@](O)(C(=O)CO)C[C@@H]3[C@@H]1C[C@H](N)[C@@H](O)[C@H](C)O1 [EH, (8R,10S)-10-((2S,4S,5R,6S)-4-amino-5-hydroxy-6-methyltetrahydro-2H-pyran-2-yl)-6,8,11-trihydroxy-8-(2-hydroxyacetyl)-1-methoxy-7,8,9,10-tetrahydrotetracene-5,12-dione]
Cell survival (%) ([1]; Table S3, ng/ml: Pi 40, Pa 160, EH 250, Ci 1500, Mi 200, 1=Ci/Mi, 2=EH/Ci/Mi, 3=Pa/Ci/Mi, 4=Pi/Ci/Mi): 56.55% | Single drug 4X Cell Survival (%) ([1]; ng/ml: EH 1000, Ci 6000, Mi 800, Pi 160, Pa 640, Ge 20, EH/Ci/Mi regimen): 38.46% | relative drug trigged pathway activity over the no-drug level, Hypoxia ([2]; 5637 cells): 2.27 fold | Relative activity, Hypoxia reporter ([2]; 5637 cells): 51.46 | relative drug trigged pathway activity over the no-drug level, Hypoxia ([2]; Biu87 cells): 2.26 fold | Relative activity, Hypoxia reporter ([2]; Biu87 cells): 17.13 | relative drug trigged pathway activity over the no-drug level, Hypoxia ([2]; H-bc cells): 1.72 fold | Relative activity, Hypoxia reporter ([2]; H-bc cells): 57.60 | relative drug trigged pathway activity over the no-drug level, Hypoxia ([2]; SV-HUC-1 cells): 1.74 fold | Relative activity, Hypoxia reporter ([2]; SV-HUC-1 cells): 44.00 | digitalized pathway activity, Hypoxia ([2]; UM-UC-3 cells): 0 (null (0) if neither of the above holds) | Relative activity, Hypoxia reporter ([2]; UM-UC-3 cells): 73.93 | relative drug trigged pathway activity over the no-drug level, Hypoxia ([2]; Um-Uc-3 cells): 1.18 fold | digitalized pathway activity, Heat Shock ([3]; 5637 cells): 0 (null (0) if neither of the above holds) | relative drug trigged pathway activity over the no-drug level, Heat Shock ([3]; 5637 cells): 1.04 fold | Relative activity, Heat Shock reporter ([3]; 5637 cells): 14.60 | digitalized pathway activity, Heat Shock ([3]; Biu87 cells): 0 (null (0) if neither of the above holds) | relative drug trigged pathway activity over the no-drug level, Heat Shock ([3]; Biu87 cells): 1.06 fold | Relative activity, Heat Shock reporter ([3]; Biu87 cells): 2.01 | digitalized pathway activity, Heat Shock ([3]; H-bc cells): 0 (null (0) if neither of the above holds) | relative drug trigged pathway activity over the no-drug level, Heat Shock ([3]; H-bc cells): 0.86 fold | Relative activity, Heat Shock reporter ([3]; H-bc cells): 3.13 | digitalized pathway activity, Heat Shock ([3]; SV-HUC-1 cells): 0 (null (0) if neither of the above holds) | relative drug trigged pathway activity over the no-drug level, Heat Shock ([3]; SV-HUC-1 cells): 0.91 fold | Relative activity, Heat Shock reporter ([3]; SV-HUC-1 cells): 36.00 | digitalized pathway activity, Heat Shock ([3]; UM-UC-3 cells): 0 (null (0) if neither of the above holds) | Relative activity, Heat Shock reporter ([3]; UM-UC-3 cells): 2.93 | relative drug trigged pathway activity over the no-drug level, Heat Shock ([3]; Um-Uc-3 cells): 0.67 fold | relative drug trigged pathway activity over the no-drug level, Myc/Max ([4]; 5637 cells): 1.5 fold | Relative activity, Myc/Max reporter ([4]; 5637 cells): 16.61 | relative drug trigged pathway activity over the no-drug level, Myc/Max ([4]; Biu87 cells): 1.66 fold | Relative activity, Myc/Max reporter ([4]; Biu87 cells): 13.61 | digitalized pathway activity, Myc/Max ([4]; H-bc cells): 0 (null (0) if neither of the above holds) | relative drug trigged pathway activity over the no-drug level, Myc/Max ([4]; H-bc cells): 1.37 fold | Relative activity, Myc/Max reporter ([4]; H-bc cells): 17.62 | digitalized pathway activity, Myc/Max ([4]; SV-HUC-1 cells): 0 (null (0) if neither of the above holds) | relative drug trigged pathway activity over the no-drug level, Myc/Max ([4]; SV-HUC-1 cells): 1.13 fold | Relative activity, Myc/Max reporter ([4]; SV-HUC-1 cells): 125.00 | Relative activity, Myc/Max reporter ([4]; UM-UC-3 cells): 25.48 | relative drug trigged pathway activity over the no-drug level, Myc/Max ([4]; Um-Uc-3 cells): 0.44 fold
